These results are taken from patent US10857105B2, “Compounds and compositions for intracellular delivery of therapeutic agents” (ModernaTX, Inc., priority 2017, dated 2020).

Data set [1] in a line: Protein expression with nanoparticle composition containing Compound 18 versus MC3 counterpart, 0.1 and 0.3 mpk. The conditions noted are these: dose response between 0.1 and 0.3 mpk. Format: in vivo.
In the next data set the test system is LDLr knockout mice. Briefly: Expression study in LDLr knockout mice. It is filed as in vivo. The settings on record: compound 18 based LNPs.
For data set [2], the system named is cynomolgus monkeys. As to the kind of experiment: Repeat dose hEPO expression in cynomolgus monkeys, once weekly for 5 weeks. It is filed as in vivo, cynomolgus monkey. The conditions noted are these: 0.2 mg/kg hEPO mRNA, 60-minute intravenous infusion, n=4. On the procedure:
(§1) NHP studies: Nonhuman primate studies were conducted using naïve cynomolgus monkeys (cynos), 2-4 years old, weighing 2-6 kg. No treatment randomization or blinding methods were used for any of the animal studies. Sample sizes were determined by the resource equation method. For injection, mRNA-LNPs in phosphate buffered saline (PBS) were administered by 60-minute intravenous infusion using a temporary indwelling catheter inserted in a peripheral vein.
hEPO ELISA for NHP samples: Human Epo levels were measured using a human erythropoietin immunoassay. Cytokines levels were measured using a non-human primate cytokine kit.
The level of expression provided by LNPs of the disclosure in a repeat dose experiment in primates was evaluated. A 0.2 mg/kg dose of hEPO mRNA in a compound 18-based LNP was delivered via a 60-minute intravenous infusion to cynomolgus monkeys (n=4) once weekly for 5 weeks.

Data set [3] has as its system cynomolgus monkeys. As to the kind of experiment: Human IgG (anti-influenza A antibody mRNA) expression in non-human primates. The settings on record: NHP, single dose. Format: in vivo, cynomolgus monkey. On the procedure: as §1
Human IgG analysis for NHP samples: A 10.0-μL matrix aliquot is transferred to a low protein binding 96-well plate. A 25.0-μL aliquot of the working internal standard solution is added, and the sample aliquot is diluted with loading buffer. […] The final extract is analyzed via HPLC with MS/MS detection using positive ion electrospray. A linear, 1/concentration^2 weighted, least-squares regression algorithm is used to quantitate unknown samples.
NHP more closely approximates clinical responses for LNP-based systems than rodent (DeRosa, F., Guild, B., Karve, S., Smith, L., Love, K., Dorkin, J R., et. al. Therapeutic efficacy in a hemophilia B model using a biosynthetic mRNA liver depot system. Gene Ther. 2016, 23, 699-707, the contents of which are incorporated herein by reference in their entireties). […] A separate study evaluated the lipid tissue accumulation in NHP after a single dose.

Data set [4] is described as follows: Lipid clearance: mouse liver tissue level and % dose remaining in liver after intravenous administration. It is filed as in vivo.
Data set [5] in a line: MC3 single cell necrosis in rat liver and liver enzymes (ALT, AST). Format: in vivo. The settings on record: rats, 0.3 mg/kg MC3-based LNP. On the procedure:
FIG. 37 is a series of graphs illustrating MC3 single cell necrosis in rat liver and liver enzyme. The top row is a pair of images of livers of rats administered with 0.3 mg/kg of a […] (LNP) not containing an mRNA (right) and PBS (phosphate buffered saline) as a control (left). The bottom row is a pair of graphs showing expression of ALT (left) and AST(right) in the liver following administration of a 0.3 mg/kg of a MC3-based LNP containing an mRNA.

Data set [6] in a line: LNP formulation characterization (particle size, PDI, RNA encapsulation, endotoxin). The conditions noted are these: ± SD within one assay run. Format: physicochemical. On the procedure: Preparation of LNP formulations: Lipids were dissolved in ethanol at molar ratios of 50:10:38.5:1.5 (ionizable lipid: DSPC: cholesterol:PEG-lipid). The lipid mixture was combined with a 6.25 mM sodium acetate buffer (pH 5) containing mRNA at a ratio of 3:1 (aqueous:ethanol) using a microfluidic mixer. Formulations were dialyzed against phosphate buffered saline (pH 7.4) in dialysis cassettes for at least 18 hours. Formulations were concentrated via centrifugal filtration, passed through a 0.22-μm filter and stored at 4° C. until use. […] The apparent pKa of the LNP formulation was determined via a TNS assay.

For another data set, the system named is Sprague Dawley rat liver. Briefly: Lipid remaining in rat liver tissue 48 h post dose (LC-MS/MS). Format: in vivo. The conditions noted are these: Sprague Dawley rat liver 48 h after 2 mg/kg bolus dose mRNA. The source says:
Similar results were obtained in the Sprague Dawley rats using human erythropoietin (hEPO) encoding mRNA (FIG. 29C). […] Compound 18 and compound 25 provided a good balance of delivery efficiency and pharmacokinetics.

“Also recorded” adds a separate entry of the source. Marks after values point to notes of the source that are not given here.

In the case of `CCCCCCCCCOC(=O)CCCCCCCN(CCO)CCCCCCCC(=O)OC(CCCCCCCC)CCCCCCCC` [Compound 18, Heptadecan-9-yl 8-((2-hydroxyethyl)(8-(nonyloxy)-8-oxooctyl)amino)octanoate], the “0.3 mpk AUC relative to 0.1 mpk dose AUC” value in data set [1] was “about three times”. For the same molecule, in the data set on LDLr knockout mice, the “expression in LDLr knockout mice” value was “almost complete loss in expression”. Also, the “hEPO exposure over repeat dosing” value in the data set on cynomolgus monkeys [2] is given as “Efficient expression; also recorded: Consistent exposure”. Besides, in the data set on cynomolgus monkeys [3], the “increase in expression of anti-human IgG influenza A antibody compared to an MC3 LNP” value is on record as 5 fold.
As for `CCCCCC=CCC=CCCCCCCCCC(CCCCCCCCC=CCC=CCCCCC)OC(=O)CCCN(C)C` (centres unmarked) [MC3, heptatriaconta-6,9,28,31-tetraen-19-yl 4-(dimethylamino)butanoate, reference compound], the “% Dose Remaining in Liver 6 h” value in data set [4] (first column headed 6 h (Table 3D)) came to 80%. Besides, the “% Remaining dose at 6 h” value in data set [4] (mouse liver, 6 h) is listed as >98%. In data set [4] (mouse liver, 24 h), the “% Remaining dose at 24 h” value amounted to 79.7%. In addition, the concentration at 6 h in data set [4] (mouse, liver, 0.5 mg/kg, 6 h) came out at 85400 ng/g. The molecule further returned a concentration at 24 h in data set [4] (mouse, liver, 0.5 mg/kg, 24 h) of 67400 ng/g. In data set [4] (second column headed 6 h (Table 3D)), the “% Dose Remaining in Liver 6 h” value came to 54%. Also, in data set [5], the “ALT, AST and liver pathology” value was “ALT and AST were elevated and pathology showed evidence of necrosis”. In addition, in data set [6], the “% Encapsulation” value came out at 97.3 ± 1.9% and the “PDI (polydispersity index)” value was 0.11 ± 0.04. Besides, the “% dose remaining Rat liver tissue, 48 h” value in the data set with Sprague Dawley rat liver is 61^e %.
